Assays:
Format in all cases: physicochemical
[1] = Color change by naked eye observation after preservation at 70° C. for seven days; also: key: −: There was no color change in the liquid preparation; ±: There was slight color change in the liquid preparation; +: There was color change in the liquid preparation; ++: There was remarkable color change in the liquid preparation
Description: (§1) Aqueous solutions containing 8 g of fudostein were adjusted to pH 2-7 using an appropriate amount of phosphoric acid or sodium hydroxide as shown in Table 1. Purified water was added to make the total amount of each solution 100 ml, thereby obtaining liquid fudostein preparations with different pHs. The liquid preparations were preserved at 70° C. for seven days to examine the residual ratio of fudostein in the solutions, color change, and sedimentation. The residual ratio of fudostein was calculated from the amount of fudostein determined by quantitative analysis using HPLC. The color change and sedimentation were evaluated by naked eye observation and rated according to the following standard.
Evaluation standard for color change:
(§2) Purified water was added to make the total amount of each solution 100 ml, thereby obtaining liquid fudostein preparations. […]
(§3) Aqueous solutions containing 8 g of fudostein and D-sorbitol in the amounts shown in Table 5 were adjusted to pH 3.5 by adding phosphoric acid. Purified water was added to make the total amount of each solution 100 ml, thereby obtaining liquid fudostein preparations.

[2] = Sedimentation by naked eye observation after preservation at 70° C. for seven days
Description: as §1, with “standard. […] (Results) Aqueous solutions containing 8 g of fudostein and D-sorbitol in the amounts shown in Table 5 were adjusted to pH 3.5 by adding phosphoric acid. Purified water was added to make the total amount of each solution 100 ml, thereby obtaining liquid fudostein preparations.” for “standard.”

[3] = Residual ratio of fudostein (HPLC) after preservation at 70° C. for seven days
Description: as §1, §2, §3

[4] = Overall stability of liquid fudostein preparations after preservation at 70° C. for seven days; conditions: 8 g fudostein/100 ml
Description: as §1, with “standard. Aqueous solutions containing 8 g of fudostein and D-sorbitol in the amounts shown in Table 5 were adjusted to pH 3.5 by adding phosphoric acid. Purified water was added to make the total amount of each solution 100 ml, thereby obtaining liquid fudostein preparations.” for “standard.”

[5] = 8 g fudostein/100 ml aqueous solution, pH 2.0, 70° C. for seven days
[6] = 8 g fudostein/100 ml aqueous solution, pH 2.5, 70° C. for seven days
[7] = 8 g fudostein/100 ml aqueous solution, pH 3.0, 70° C. for seven days
[8] = 8 g fudostein/100 ml aqueous solution, pH 3.5, 70° C. for seven days
[9] = 8 g fudostein/100 ml aqueous solution, pH 4.0, 70° C. for seven days
[10] = 8 g fudostein/100 ml aqueous solution, pH 5.0, 70° C. for seven days
[11] = 8 g fudostein/100 ml aqueous solution, pH 6.0, 70° C. for seven days
[12] = 8 g fudostein/100 ml aqueous solution, pH 7.0, 70° C. for seven days
[13] = 8 g fudostein/100 ml, D-sorbitol 0%, pH 3.5, 70° C. for seven days
[14] = 8 g fudostein/100 ml, D-sorbitol 10%, pH 3.5, 70° C. for seven days
[15] = 8 g fudostein/100 ml, D-sorbitol 20%, pH 3.5, 70° C. for seven days
[16] = 8 g fudostein/100 ml, D-sorbitol 30%, pH 3.5, 70° C. for seven days
[17] = 8 g fudostein/100 ml, D-sorbitol 40%, pH 3.5, 70° C. for seven days
[18] = 8 g fudostein/100 ml, D-sorbitol 50%, pH 3.5, 70° C. for seven days

Color change [1, 5]: − | Color change [1, 6]: − | Color change [1, 7]: − | Color change [1, 8]: − | Color change [1, 9]: − | Color change [1, 10]: ± | Color change [1, 11]: + | Color change [1, 12]: ++ | Color change [1, 13]: − | Color change [1, 14]: − | Color change [1, 15]: − | Color change [1, 16]: − | Color change [1, 17]: ± | Color change [1, 18]: + | Sedimentation [2, 5]: ± (Slight sedimentation was observed.) | Sedimentation [2, 6]: ± (Slight sedimentation was observed.) | Sedimentation [2, 7]: − | Sedimentation [2, 8]: − | Sedimentation [2, 9]: − | Sedimentation [2, 10]: − | Sedimentation [2, 11]: − | Sedimentation [2, 12]: − | Sedimentation [2, 13]: − | Sedimentation [2, 14]: − | Sedimentation [2, 15]: − | Sedimentation [2, 16]: − | Sedimentation [2, 17]: + (Sedimentation was observed.) | Sedimentation [2, 18]: + (Sedimentation was observed.) | Analytical value Residual ratio (%) [3, 5]: 99.9% | Analytical value Residual ratio (%) [3, 6]: 100.0% | Analytical value Residual ratio (%) [3, 7]: 100.7% | Analytical value Residual ratio (%) [3, 8]: 100.3% | Analytical value Residual ratio (%) [3, 9]: 101.1% | Analytical value Residual ratio (%) [3, 10]: 100.1% | Analytical value Residual ratio (%) [3, 11]: 100.4% | Analytical value Residual ratio (%) [3, 12]: 99.4% | Analytical value Residual ratio (%) ([3]; 8 g fudostein/100 ml, D-sorbitol 0%, pH 3.5 (phosphoric acid), 70° C. for seven days): 99.6% | Analytical value Residual ratio (%) ([3]; 8 g fudostein/100 ml, D-sorbitol 10%, pH 3.5 (phosphoric acid), 70° C. for seven days): 99.4% | Analytical value Residual ratio (%) ([3]; 8 g fudostein/100 ml, D-sorbitol 20%, pH 3.5 (phosphoric acid), 70° C. for seven days): 99.0% | Analytical value Residual ratio (%) ([3]; 8 g fudostein/100 ml, D-sorbitol 30%, pH 3.5 (phosphoric acid), 70° C. for seven days): 99.3% | Analytical value Residual ratio (%) ([3]; 8 g fudostein/100 ml, D-sorbitol 40%, pH 3.5 (phosphoric acid), 70° C. for seven days): 99.9% | Analytical value Residual ratio (%) ([3]; 8 g fudostein/100 ml, D-sorbitol 50%, pH 3.5 (phosphoric acid), 70° C. for seven days): 100.4% | pH at which the liquid fudostein preparation remains stable ([4]; 70° C. for seven days): ≤ 5.0 | sugar alcohol concentration at which liquid fudostein preparations are stable ([4]; D-sorbitol, pH 3.5, 70° C. for seven days): ≤ 40%
SMILES: N[C@@H](CSCCCO)C(=O)O [fudostein, S-(3-hydroxypropyl)-L-cysteine]

— US7592372B2, “Liquid drug preparations” (Hisamitsu Pharmaceutical Co., Inc., priority 2001, dated 2009)
